Where “and” joins values, the source holds several entries; their conditions need not be identical. Equal entries are not always repeated. Inconclusive results and toxic doses are left out.
Tested on: BDF1 mice, P388 leukemia ip, median survival T/C
Assay: NCI In Vivo Anticancer Drug Screen. Data for tumor model P388 Leukemia (intraperitoneal) in B6D2F1 (BDF1) mice
Conditions: endpoint: median survival time, higher = longer survival
Outline: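 Antitumour effect was judged in vivo: survival in drug-treated mice, normalised to that of vehicle-dosed controls, gives the reported T/C.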

[1] = dose: 12.5 mg/kg/injection, schedule: Q01DX009 (ip), vehicle: Klucel (hydroxypropylcellulose) (HPC)
[2] = dose: 100.0 mg/kg/injection, schedule: Q01DX009 (ip), vehicle: saline with Tween-80
[3] = dose: 100.0 mg/kg/injection, schedule: Q04DX003 (ip), vehicle: saline with Tween-80
[4] = dose: 200.0 mg/kg/injection, schedule: Q01DX009 (ip), vehicle: saline with Tween-80
[5] = dose: 200.0 mg/kg/injection, schedule: Q04DX003 (ip), vehicle: saline with Tween-80
[6] = dose: 400.0 mg/kg/injection, schedule: Q01DX009 (ip), vehicle: saline with Tween-80
[7] = dose: 400.0 mg/kg/injection, schedule: Q04DX003 (ip), vehicle: saline with Tween-80
[8] = dose: 6.25 mg/kg/injection, schedule: Q01DX009 (ip), vehicle: saline with Tween-80
[9] = dose: 12.5 mg/kg/injection, schedule: Q01DX009 (ip), vehicle: saline with Tween-80
[10] = dose: 25.0 mg/kg/injection, schedule: Q01DX009 (ip), vehicle: saline with Tween-80
[11] = dose: 50.0 mg/kg/injection, schedule: Q01DX009 (ip), vehicle: saline with Tween-80
[12] = dose: 100.0 mg/kg/injection, schedule: Q01DX009 (ip), vehicle: saline
[13] = dose: 100.0 mg/kg/injection, schedule: Q04DX003 (ip), vehicle: saline
[14] = dose: 400.0 mg/kg/injection, schedule: Q04DX003 (ip), vehicle: saline

CC(=O)OCc1c(COC(C)=O)c(-c2ccc(Cl)c(Cl)c2)n2c1CCC2
T/C [1]: 114 % of control

CCCCCCCCCCCCN(C)C
T/C (dose: 12.5 mg/kg/injection, schedule: Q04DX003 (ip), vehicle: saline): 104 % of control | T/C (dose: 25.0 mg/kg/injection, schedule: Q04DX003 (ip), vehicle: saline): 109 % of control | T/C (dose: 50.0 mg/kg/injection, schedule: Q04DX003 (ip), vehicle: saline): 118 % of control

O=C(/C=C/c1ccc([N+](=O)[O-])cc1)c1ccc(Cl)cc1
T/C [2]: 90 % of control | T/C [3]: 95 % of control | T/C [4]: 90 % of control | T/C [5]: 90 % of control | T/C [6]: 100 % of control | T/C [7]: 100 % of control

Cc1ccc(S(=O)(=O)/C=C(/I)c2ccccc2)cc1
T/C [8]: 124 % of control | T/C [9]: 106 % of control | T/C [10]: 106 % of control | T/C [11]: 92 % of control and 109 % of control | T/C [2]: 109 % of control | T/C [3]: 114 % of control | T/C [4]: 106 % of control | T/C [5]: 106 % of control | T/C [6]: 100 % of control | T/C [7]: 97 % of control

CC(C)C1=CC23CCC4C(C)(C(N)=O)CCCC4(C)C2CC1C1C(=O)OC(=O)C13 (stereo not given)
T/C (dose: 12.5 mg/kg/injection, schedule: Q01DX001 (ip), vehicle: saline with Tween-80): 100 % of control | T/C (dose: 25.0 mg/kg/injection, schedule: Q01DX001 (ip), vehicle: saline with Tween-80): 108 % of control | T/C (dose: 50.0 mg/kg/injection, schedule: Q01DX001 (ip), vehicle: saline with Tween-80): 104 % of control

C[N+]12CCN(CC1)CC2
T/C [12]: 91 % of control | T/C (dose: 200.0 mg/kg/injection, schedule: Q01DX009 (ip), vehicle: saline): 91 % of control | T/C (dose: 400.0 mg/kg/injection, schedule: Q01DX009 (ip), vehicle: saline): 100 % of control

COc1ccc(/C=C/c2ccc3ccccc3n2)c(OC)c1
T/C [3]: 88 % of control | T/C [5]: 100 % of control

O=C1CC(=Nc2ccccc2)N(c2ccccc2)N1
T/C (dose: 33.75 mg/kg/injection, schedule: Q01DX009 (ip), vehicle: saline with Tween-80): 109 % of control | T/C (dose: 67.5 mg/kg/injection, schedule: Q01DX009 (ip), vehicle: saline with Tween-80): 91 % of control | T/C (dose: 135.0 mg/kg/injection, schedule: Q01DX009 (ip), vehicle: saline with Tween-80): 89 % of control

CN1CCN(C(=O)Nc2ccc(N=Nc3ccccc3)cc2)CC1
T/C (dose: 4.16 mg/kg/injection, schedule: Q01DX009 (ip), vehicle: saline with Tween-80): 100 % of control | T/C [8]: 90 % of control | T/C (dose: 9.38 mg/kg/injection, schedule: Q01DX009 (ip), vehicle: saline with Tween-80): 90 % of control | T/C (dose: 50.0 mg/kg/injection, schedule: Q04DX003 (ip), vehicle: saline sonified): 95 % of control | T/C (dose: 100.0 mg/kg/injection, schedule: Q04DX003 (ip), vehicle: saline sonified): 100 % of control

CN(C)c1ccc(-c2cc[n+](C)cc2)cc1
T/C (dose: 0.5 mg/kg/injection, schedule: Q01DX009 (ip), vehicle: saline): 119 % of control | T/C (dose: 1.0 mg/kg/injection, schedule: Q01DX009 (ip), vehicle: saline): 111 % of control | T/C (dose: 2.0 mg/kg/injection, schedule: Q01DX009 (ip), vehicle: saline): 91 % of control | T/C (dose: 3.0 mg/kg/injection, schedule: Q01DX009 (ip), vehicle: saline): 106 % of control | T/C (dose: 6.0 mg/kg/injection, schedule: Q01DX009 (ip), vehicle: saline): 114 % of control

CCOC(=O)CCN(CCC(=O)OCC)C(C)C
T/C [3]: 100 % of control | T/C [5]: 100 % of control | T/C [7]: 100 % of control

COc1cc(C=Nc2cc(Cl)c(Cl)c(Cl)c2)ccc1N(CCCl)CCCl
T/C (dose: 1.8 mg/kg/injection, schedule: Q01DX009 (ip), vehicle: Klucel (hydroxypropylcellulose) (HPC)): 150 % of control | T/C (dose: 2.7 mg/kg/injection, schedule: Q01DX009 (ip), vehicle: Klucel (hydroxypropylcellulose) (HPC)): 158 % of control | T/C (dose: 3.12 mg/kg/injection, schedule: Q01DX009 (ip), vehicle: Klucel (hydroxypropylcellulose) (HPC)): 195 % of control | T/C (dose: 4.1 mg/kg/injection, schedule: Q01DX009 (ip), vehicle: Klucel (hydroxypropylcellulose) (HPC)): 237 % of control and 163 % of control | T/C (dose: 6.25 mg/kg/injection, schedule: Q01DX009 (ip), vehicle: Klucel (hydroxypropylcellulose) (HPC)): 227 % of control and 240 % of control and 208 % of control | T/C (dose: 9.3 mg/kg/injection, schedule: Q01DX009 (ip), vehicle: Klucel (hydroxypropylcellulose) (HPC)): 254 % of control and 150 % of control | T/C [1]: 204 % of control | T/C (dose: 25.0 mg/kg/injection, schedule: Q01DX009 (ip), vehicle: Klucel (hydroxypropylcellulose) (HPC)): 120 % of control | T/C (dose: 30.0 mg/kg/injection, schedule: Q04DX003 (ip), vehicle: Klucel (hydroxypropylcellulose) (HPC)): 186 % of control | T/C (dose: 45.0 mg/kg/injection, schedule: Q04DX003 (ip), vehicle: Klucel (hydroxypropylcellulose) (HPC)): 272 % of control

Cc1ccc2nc(-c3ccc(CSC(=N)N)cc3)oc(=O)c2c1
T/C (dose: 0.78 mg/kg/injection, schedule: Q01DX009 (ip), vehicle: saline with Tween-80): 96 % of control | T/C (dose: 1.56 mg/kg/injection, schedule: Q01DX009 (ip), vehicle: saline with Tween-80): 99 % of control | T/C (dose: 3.12 mg/kg/injection, schedule: Q01DX009 (ip), vehicle: saline with Tween-80): 96 % of control

S=c1sc(-c2ccccc2)c[se]1
T/C (dose: 25.0 mg/kg/injection, schedule: Q01DX009 (ip), vehicle: saline + Tween-80 + alcohol): 107 % of control | T/C (dose: 50.0 mg/kg/injection, schedule: Q01DX009 (ip), vehicle: saline + Tween-80 + alcohol): 105 % of control

NC(=O)N/N=C/c1cccs1
T/C [10]: 97 % of control | T/C [11]: 104 % of control

CCSc1nc(C=O)c(Cc2ccc(Br)cc2)c(=O)[nH]1
T/C [3]: 109 % of control | T/C [5]: 122 % of control | T/C [7]: 150 % of control

CN(C)c1ccc(/C=C/c2ccccn2)cc1
T/C [9]: 95 % of control | T/C [10]: 95 % of control

S=C(S)NCCNC(=S)S
T/C (dose: 40.0 mg/kg/injection, schedule: Q01DX009 (ip), vehicle: saline): 120 % of control | T/C (dose: 60.0 mg/kg/injection, schedule: Q01DX009 (ip), vehicle: saline): 108 % of control | T/C (dose: 85.0 mg/kg/injection, schedule: Q04DX003 (ip), vehicle: saline): 109 % of control | T/C (dose: 88.0 mg/kg/injection, schedule: Q01DX009 (ip), vehicle: saline): 100 % of control | T/C (dose: 88.0 mg/kg/injection, schedule: Q04DX003 (ip), vehicle: saline): 109 % of control | T/C [12]: 115 % of control | T/C [13]: 109 % of control and 118 % of control | T/C (dose: 132.0 mg/kg/injection, schedule: Q04DX003 (ip), vehicle: saline): 104 % of control | T/C (dose: 150.0 mg/kg/injection, schedule: Q01DX009 (ip), vehicle: saline): 115 % of control | T/C (dose: 300.0 mg/kg/injection, schedule: Q04DX003 (ip), vehicle: saline): 109 % of control | T/C (dose: 350.0 mg/kg/injection, schedule: Q01DX009 (ip), vehicle: saline): 120 % of control | T/C [14]: 100 % of control and 118 % of control

[O-][n+]1c(CCl)nc2cccc3c2c1-c1ccccc1-3
T/C [9]: 106 % of control | T/C [10]: 111 % of control and 121 % of control (2×) | T/C [11]: 121 % of control | T/C [2]: 93 % of control

Cc1cc2c3ccccc3ncn2n1
T/C (dose: 100.0 mg/kg/injection, schedule: Q01DX001 (ip), vehicle: saline): 100 % of control | T/C (dose: 100.0 mg/kg/injection, schedule: Q01DX009 (ip), vehicle: Klucel (hydroxypropylcellulose) (HPC)): 100 % of control | T/C [13]: 100 % of control | T/C (dose: 200.0 mg/kg/injection, schedule: Q01DX001 (ip), vehicle: saline): 108 % of control | T/C (dose: 200.0 mg/kg/injection, schedule: Q01DX009 (ip), vehicle: Klucel (hydroxypropylcellulose) (HPC)): 108 % of control | T/C (dose: 200.0 mg/kg/injection, schedule: Q04DX003 (ip), vehicle: saline): 100 % of control | T/C [14]: 100 % of control

CC(=O)OCC(=O)[C@@]1(O)CC[C@H]2[C@@H]3C=C(C)C4=CC(=O)CC[C@]4(C)[C@H]3[C@@H](O)C[C@@]21C
T/C [2]: 108 % of control | T/C [3]: 95 % of control | T/C [4]: 91 % of control | T/C [5]: 95 % of control | T/C [6]: 108 % of control | T/C [7]: 95 % of control

From PubChem BioAssay AID328 (DTP/NCI, 2004)
